Like-named read-outs stand apart in the source and are kept apart here.
How the values were obtained:
[1] = system: BaF3_EGFR d19/CS cells; experiment: Biological Activity Assay D: BaF3 cell proliferation assay, EGFR exon 19 deletion/C797S (BaF3 d19/CS); format: cell-based; settings: Ba/F3 EGFR, read-out: BaF3 d19/CS IC50
[2] = system: Ba/F3_EGFR WT cells; experiment: Biological Activity Assay D: BaF3 cell proliferation assay, EGFR wild-type (BaF3 WT); format: cell-based; settings: Ba/F3 EGFR, read-out: BaF3 WT IC50
[3] = system: BaF3_EGFR LR/CS cells; experiment: Biological Activity Assay D: BaF3 cell proliferation assay, EGFR L858R/C797S mutant (BaF3 LR/CS); format: cell-based; settings: Ba/F3 EGFR, read-out: BaF3 LR/CS IC50
[4] = molecular target: recombinant human EGFR L858R/C797S double mutant protein (Homo sapiens (Human), UniProt P00533, C797S/L858R); experiment: Biological Activity Assay B: biochemical assay against EGFR L858R/C797S protein (EGFR LR/CS)
Chain of recombinant human EGFR L858R/C797S double mutant protein (P00533 25-1210 C797S/L858R): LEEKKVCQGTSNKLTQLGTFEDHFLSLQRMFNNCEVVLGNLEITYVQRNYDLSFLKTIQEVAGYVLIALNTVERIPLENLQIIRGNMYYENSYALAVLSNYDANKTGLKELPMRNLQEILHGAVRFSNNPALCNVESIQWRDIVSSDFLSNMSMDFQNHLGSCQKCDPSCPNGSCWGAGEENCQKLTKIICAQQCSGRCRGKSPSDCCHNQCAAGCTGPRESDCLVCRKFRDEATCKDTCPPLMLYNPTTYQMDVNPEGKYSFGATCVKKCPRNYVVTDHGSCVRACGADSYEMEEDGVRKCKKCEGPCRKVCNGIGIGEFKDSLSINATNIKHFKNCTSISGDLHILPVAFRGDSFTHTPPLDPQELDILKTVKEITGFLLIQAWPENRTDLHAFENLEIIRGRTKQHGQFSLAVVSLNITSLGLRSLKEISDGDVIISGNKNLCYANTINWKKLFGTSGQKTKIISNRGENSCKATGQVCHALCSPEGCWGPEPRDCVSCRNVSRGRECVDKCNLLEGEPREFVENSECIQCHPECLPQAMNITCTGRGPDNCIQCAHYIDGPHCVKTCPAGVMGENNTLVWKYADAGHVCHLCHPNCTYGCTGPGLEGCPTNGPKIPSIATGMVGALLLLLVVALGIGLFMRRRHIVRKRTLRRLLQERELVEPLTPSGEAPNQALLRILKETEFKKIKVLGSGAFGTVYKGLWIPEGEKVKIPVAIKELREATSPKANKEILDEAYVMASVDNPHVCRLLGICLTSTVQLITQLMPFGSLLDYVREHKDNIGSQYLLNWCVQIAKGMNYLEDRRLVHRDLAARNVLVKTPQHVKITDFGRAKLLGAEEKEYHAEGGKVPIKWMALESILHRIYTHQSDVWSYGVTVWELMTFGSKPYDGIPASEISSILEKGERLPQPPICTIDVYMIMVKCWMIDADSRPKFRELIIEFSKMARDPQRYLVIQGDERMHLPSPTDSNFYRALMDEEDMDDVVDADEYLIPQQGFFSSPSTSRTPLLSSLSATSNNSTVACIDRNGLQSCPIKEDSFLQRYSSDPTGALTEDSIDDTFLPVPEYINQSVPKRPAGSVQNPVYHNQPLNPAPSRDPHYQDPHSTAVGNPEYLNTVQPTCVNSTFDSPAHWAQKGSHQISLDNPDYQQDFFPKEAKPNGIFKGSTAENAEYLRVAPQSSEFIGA
Method in brief: (§1)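 Compounds were tested as 16-point serial dilutions (final DMSO 2.5%) with a Phosphosens peptide sensor/ATP working solution (40 uM/4 mM). The signal was read kinetically over 90 cycles at 120 s intervals. IC50s came from 4-parameter fits of per-well slopes.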

[5] = molecular target: recombinant human EGFR exon 19 deletion/C797S double mutant protein (Homo sapiens (Human), UniProt P00533, C797S/DEL746-750); experiment: Biological Activity Assay C: biochemical assay against EGFR exon 19 deletion/C797S protein (EGFR d19/CS)
Chain of recombinant human EGFR exon 19 deletion/C797S double mutant protein (P00533 other isoform, or with tags, fused parts or gaps C797S/del 1-668/del 746-750 limits assumed): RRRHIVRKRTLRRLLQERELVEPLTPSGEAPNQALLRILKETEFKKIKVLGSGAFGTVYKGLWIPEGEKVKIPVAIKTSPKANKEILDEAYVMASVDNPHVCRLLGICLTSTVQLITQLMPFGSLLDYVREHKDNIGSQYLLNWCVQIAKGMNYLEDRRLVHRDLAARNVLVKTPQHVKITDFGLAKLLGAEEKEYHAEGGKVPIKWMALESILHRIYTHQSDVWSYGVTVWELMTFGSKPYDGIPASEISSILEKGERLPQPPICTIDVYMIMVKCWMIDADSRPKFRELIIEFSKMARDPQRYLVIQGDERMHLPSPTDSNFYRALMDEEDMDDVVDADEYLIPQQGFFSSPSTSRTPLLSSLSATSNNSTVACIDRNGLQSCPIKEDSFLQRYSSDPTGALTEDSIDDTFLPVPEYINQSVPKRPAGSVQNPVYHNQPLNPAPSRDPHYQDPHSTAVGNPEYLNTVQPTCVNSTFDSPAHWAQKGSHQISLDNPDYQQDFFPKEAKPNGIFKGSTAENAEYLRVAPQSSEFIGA
Method in brief: as §1

[6] = BaF3_EGFR d19/CS cells, ~72 hours, CellTiter-Glo
[7] = Ba/F3_EGFR WT cells, ~72 hours, CellTiter-Glo
[8] = BaF3_EGFR LR/CS cells, ~72 hours, CellTiter-Glo

## COC1(Cn2cc(-c3ncnc4oc(-c5ccccc5)cc34)c(-c3ccc(F)cc3)n2)COC1 [Example 75, 4-{3-(4-fluorophenyl)-1-[(3-methoxyoxetan-3-yl)methyl]-1H-pyrazol-4-yl}-6-phenylfuro[2,3-d]pyrimidine]
[1]; [6]
  IC50: 150 nM
[2]; [7]
  IC50: 5.92 µM
[3]; [8]
  IC50: 131 nM
[4]
  IC50: 1.01 nM
[5]
  IC50: 1.49 nM

## Fc1ccc(-c2nn(C3CCOCC3)cc2-c2ncnc3oc(-c4ccccc4)cc23)cc1 [Example 76, 4-[3-(4-Fluorophenyl)-1-(oxan-4-yl)-1H-pyrazol-4-yl]-6-phenylfuro[2,3-d]pyrimidine]
[1]; [6]
  IC50: 31 nM
[2]; [7]
  IC50: 2.02 µM
[3]; [8]
  IC50: 45.5 nM
[4]
  IC50: 0.94 nM
[5]
  IC50: 0.7 nM

## CC(C)(C(N)=O)n1cc(-c2ncnc3oc(-c4ccccc4)cc23)c(-c2ccc(F)cc2)n1 [Example 77, 2-[3-(4-Fluorophenyl)-4-(6-phenylfuro[2,3-d]pyrimidin-4-yl)-1H-pyrazol-1-yl]-2-methylpropanamide]
[1]; [6]
  IC50: 72.2 nM
[2]; [7]
  IC50: 5.18 µM
[3]; [8]
  IC50: 139 nM
[4]
  IC50: 1.36 nM
[5]
  IC50: 1.61 nM

## OCC(F)(F)Cn1cc(-c2ncnc3oc(-c4ccccc4)cc23)c(-c2ccc(F)cc2)n1 [Example 78, 2,2-Difluoro-3-[3-(4-fluorophenyl)-4-(6-phenylfuro[2,3-d]pyrimidin-4-yl)-1H-pyrazol-1-yl]propan-1-ol]
[1]; [6]
  IC50: 18.4 nM
[2]; [7]
  IC50: 2.73 µM
[3]; [8]
  IC50: 23.2 nM
[4]
  IC50: 0.48 nM
[5]
  IC50: 0.37 nM

## CS(=O)(=O)Cn1cc(-c2ncnc3oc(-c4ccccc4)cc23)c(-c2ccc(F)cc2)n1 [Example 79, 4-{3-(4-fluorophenyl)-1-[(methanesulfonyl)methyl]-1H-pyrazol-4-yl}-6-phenylfuro[2,3-d]pyrimidine]
[1]; [6]
  IC50: 111 nM
[2]; [7]
  IC50: 10.2 µM
[3]; [8]
  IC50: 116 nM
[4]
  IC50: 2.64 nM
[5]
  IC50: 1.99 nM

## Fc1ccc(-c2nn(C3COC3)nc2-c2ncnc3oc(-c4ccccc4)cc23)cc1 [Example 81, 4-[5-(4-fluorophenyl)-2-(oxetan-3-yl)-2H-1,2,3-triazol-4-yl]-6-phenylfuro[2,3-d]pyrimidine]
[1]; [6]
  IC50: 330 nM
[2]; [7]
  IC50: 13.5 µM
[3]; [8]
  IC50: 241 nM
[4]
  IC50: 2.58 nM
[5]
  IC50: 1.12 nM

## CC(C)(O)CCn1nc(-c2ccc(F)cc2)c(-c2ncnc3oc(-c4ccccc4)cc23)n1 [Example 82, 4-[4-(4-fluorophenyl)-5-(6-phenylfuro[2,3-d]pyrimidin-4-yl)-2H-1,2,3-triazol-2-yl]-2-methylbutan-2-ol]
[1]; [6]
  IC50: 597 nM
[2]; [7]
  IC50: > 20 µM
[3]; [8]
  IC50: 392 nM
[4]
  IC50: 4.33 nM
[5]
  IC50: 2.86 nM

## O=S1(=O)CCCC(n2cc(-c3ncnc4oc(-c5ccccc5)cc34)c(-c3ccc(F)cc3)n2)C1 (centres unmarked) [Example 84, 3-[3-(4-fluorophenyl)-4-(6-phenylfuro[2,3-d]pyrimidin-4-yl)-1H-pyrazol-1-yl]-1λ6-thiane-1,1-dione]
[1]; [6]
  IC50: 779 nM
[2]; [7]
  IC50: > 20 µM
[3]; [8]
  IC50: 566 nM
[4]
  IC50: 6.21 nM
[5]
  IC50: 10.8 nM

## CC(=O)N1CC(n2cc(-c3ncnc4oc(-c5ccccc5)cc34)c(-c3ccc(F)cc3)n2)C1 [Example 86, 1-{3-[3-(4-fluorophenyl)-4-(6-phenylfuro[2,3-d]pyrimidin-4-yl)-1H-pyrazol-1-yl]azetidin-1-yl}ethan-1-one]
[1]; [6]
  IC50: 429 nM
[2]; [7]
  IC50: 7.38 µM
[3]; [8]
  IC50: 390 nM
[4]
  IC50: 6.25 nM
[5]
  IC50: 6.67 nM

## CS(=O)(=O)CCn1nc(-c2ccc(F)cc2)c(-c2ncnc3oc(-c4ccccc4)cc23)n1 [Example 87, 4-{5-(4-fluorophenyl)-2-[2-(methanesulfonyl)ethyl]-2H-1,2,3-triazol-4-yl}-6-phenylfuro[2,3-d]pyrimidine]
[1]; [6]
  IC50: 196 nM
[2]; [7]
  IC50: 2.81 µM
[3]; [8]
  IC50: 140 nM
[4]
  IC50: 1.56 nM
[5]
  IC50: 1.34 nM

## CC(C)(O)Cn1nc(-c2ccc(F)cc2)c(-c2ncnc3oc(-c4ccccc4)cc23)n1 [Example 88, 1-[4-(4-fluorophenyl)-5-(6-phenylfuro[2,3-d]pyrimidin-4-yl)-2H-1,2,3-triazol-2-yl]-2-methylpropan-2-ol]
[1]; [6]
  IC50: 238 nM
[2]; [7]
  IC50: 3.74 µM
[3]; [8]
  IC50: 301 nM
[4]
  IC50: 1.22 nM
[5]
  IC50: 0.64 nM

## CC(=O)N1CCC(n2cc(-c3ncnc4oc(-c5ccccc5)cc34)c(-c3ccc(F)cc3)n2)C1 (centres unmarked) [Example 92, 1-{3-[3-(4-fluorophenyl)-4-(6-phenylfuro[2,3-d]pyrimidin-4-yl)-1H-pyrazol-1-yl]pyrrolidin-1-yl}ethan-1-one]
[1]; [6]
  IC50: 255 nM
[2]; [7]
  IC50: 6.22 µM
[3]; [8]
  IC50: 231 nM
[4]
  IC50: 0.95 nM
[5]
  IC50: 0.84 nM

## COC(C)(C)Cn1cc(-c2ncnc3oc(-c4ccccc4)cc23)c(-c2ccc(F)cc2)n1 [Example 93, 4-[3-(4-fluorophenyl)-1-(2-methoxy-2-methylpropyl)-1H-pyrazol-4-yl]-6-phenylfuro[2,3-d]pyrimidine]
[1]; [6]
  IC50: 450 nM
[2]; [7]
  IC50: 4.29 µM
[3]; [8]
  IC50: 184 nM
[4]
  IC50: 0.91 nM
[5]
  IC50: 0.73 nM

## OCCn1cc(-c2ncnc3oc(-c4ccccc4)cc23)c(-c2ccc(F)cc2)n1 [Example 94, 2-[3-(4-Fluorophenyl)-4-(6-phenylfuro[2,3-d]pyrimidin-4-yl)-1H-pyrazol-1-yl]ethan-1-ol]
[1]; 72 h
  IC50: 27.4 nM
[2]; 72 h
  IC50: 1.12 µM
[3]; 72 h
  IC50: 22.4 nM
[4]
  IC50: 0.17 nM
[5]
  IC50: 0.11 nM

## CC(C)(O)Cn1cc(-c2ncnc3oc(-c4ccccc4)cc23)c(-c2cccc(F)c2)n1 [Example 95, 1-[3-(3-Fluorophenyl)-4-(6-phenylfuro[2,3-d]pyrimidin-4-yl)-1H-pyrazol-1-yl]-2-methylpropan-2-ol]
[1]; [6]
  IC50: 95.2 nM
[2]; [7]
  IC50: 2.09 µM
[3]; [8]
  IC50: 116 nM
[4]
  IC50: 0.75 nM
[5]
  IC50: 0.32 nM

## O=S1(=O)CC(Cn2cc(-c3ncnc4oc(-c5ccccc5)cc34)c(-c3ccc(F)cc3)n2)C1 [Example 98, 3-{[3-(4-fluorophenyl)-4-(6-phenylfuro[2,3-d]pyrimidin-4-yl)-1H-pyrazol-1-yl]methyl}-1λ6-thietane-1,1-dione]
[1]; [6]
  IC50: 212 nM
[2]; [7]
  IC50: 1.86 µM
[3]; [8]
  IC50: 161 nM
[4]
  IC50: 0.82 nM
[5]
  IC50: 1.27 nM

## CS(=O)(=O)NCCn1cc(-c2ncnc3oc(-c4ccccc4)cc23)c(-c2ccc(F)cc2)n1 [Example 103, N-{2-[3-(4-Fluorophenyl)-4-(6-phenylfuro[2,3-d]pyrimidin-4-yl)-1H-pyrazol-1-yl]ethyl}methanesulfonamide]
[1]; [6]
  IC50: 17.5 nM
[2]; [7]
  IC50: 0.229 µM
[3]; [8]
  IC50: 8.35 nM
[4]
  IC50: 0.16 nM
[5]
  IC50: 0.13 nM

## O=S1(=O)CC(n2nc(-c3ccc(F)cc3)c(-c3ncnc4oc(-c5ccccc5)cc34)n2)C1 [Example 104, 3-[4-(4-Fluorophenyl)-5-(6-phenylfuro[2,3-d]pyrimidin-4-yl)-2H-1,2,3-triazol-2-yl]-1λ6-thietane-1,1-dione]
[1]; [6]
  IC50: 98 nM
[2]; [7]
  IC50: 10.6 µM
[3]; [8]
  IC50: 174 nM
[4]
  IC50: 1.67 nM
[5]
  IC50: 0.46 nM

## O=S1(=O)CCC(Cn2cc(-c3ncnc4oc(-c5ccccc5)cc34)c(-c3ccc(F)cc3)n2)CC1 [Example 105, 4-{[3-(4-fluorophenyl)-4-(6-phenylfuro[2,3-d]pyrimidin-4-yl)-1H-pyrazol-1-yl]methyl}-1λ6-thiane-1,1-dione]
[1]; [6]
  IC50: 152 nM
[2]; [7]
  IC50: 1.7 µM
[3]; [8]
  IC50: 136 nM
[4]
  IC50: 0.75 nM
[5]
  IC50: 1.69 nM

Source: patent publication US20250034159A1, “INHIBITORS OF EPIDERMAL GROWTH FACTOR RECEPTOR” (ORIC Pharmaceuticals, Inc., priority 2021, published 2025)
